Test results published in ChEMBL document CHEMBL1201862, “PubChem BioAssay data set” (2004).
Where “and” joins values, the source holds several entries; their conditions need not be identical. Equal entries are not always repeated. Calls of active or inactive are those of the source.

How the values were obtained:
[1] = toxicity to human hepatoma HepG2 cells – cell-based, cherry-picked samples, cytotoxicity control, dose response (AID 1159577); format: functional
[2] = P. falciparum Dd2 growth inhibitors, dose response, SYBR Green, cherry-picked samples (AID 1159567); format: functional, cell-based
[3] = HIV-1 Vif–A3G interaction blockers – biochemical, TR-FRET, GST-Vif 1-94, biotin-A3G peptide, dose response retest, primary screen (AID 1117319); format: functional;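 further: TR-FRET signal of purified GST-Vif binding a biotinylated A3G peptide; inhibitors lower the FRET signal by blocking Vif and A3G binding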
[4] = molecular target: Protein Tat (Human immunodeficiency virus type 1 group M subtype B (isolate HXB2)(HIV-1), UniProt P04608); format: functional;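 further: tat binding to TAR RNA read out by fluorescence polarization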
Protein Tat, sequence (P04608 whole entry): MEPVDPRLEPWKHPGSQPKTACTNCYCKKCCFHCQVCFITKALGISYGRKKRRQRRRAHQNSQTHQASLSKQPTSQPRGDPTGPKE

[5] = YAP1 overexpression rescue of CTGF inhibition – DLD1 cells, RT-qPCR, cherry-pick, mechanism study for YAP1 pathway inhibitor project, dose response (AID 1053127); format: functional, cell-based; conditions: DLD-1
[6] = IC50 of insulin release inhibition, rat insulinoma INS-1E line, 5 mM glucose, cell-based (AID 1117331); format: functional
[7] = cells; format: functional, cell-based; conditions: INS-1E
[8] = A cytotoxicity screen of small molecule inhibitors of the PhoP region in Salmonella typhi identified in the primary screen. [Related pubchem assays: 1850, 1864, 1985 ]; format: functional
[9] = molecular target: Acyl-protein thioesterase 1 (Homo sapiens, UniProt O75608); experiment: Late stage assay provider results from the probe development effort to identify selective inhibitors of LYPLA1: fluorescence-based biochemical dose-response assay.
Acyl-protein thioesterase 1, sequence (O75608 whole entry): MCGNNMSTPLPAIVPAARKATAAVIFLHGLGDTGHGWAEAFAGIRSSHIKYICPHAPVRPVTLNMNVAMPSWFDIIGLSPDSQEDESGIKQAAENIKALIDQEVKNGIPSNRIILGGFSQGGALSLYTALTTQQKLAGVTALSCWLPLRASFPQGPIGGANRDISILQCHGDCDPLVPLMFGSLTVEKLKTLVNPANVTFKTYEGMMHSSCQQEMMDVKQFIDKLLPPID

[10] = Dd2 malaria parasite growth inhibition potency – SYBR Green, dry powder samples, dose response (AID 1159566); format: functional, cell-based;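 further: potency for growth inhibition with lower SYBR green DNA signal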
[11] = growth inhibition of PfATP4-mutant resistant parasites – NITD609-resistant line, SYBR Green, dry powder, dose response (AID 1159571); format: functional, cell-based;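 further: parasites synchronized at ring stage by sorbitol before testing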
[12] = growth inhibition of yeast DHODH-expressing 3D7 parasites – SYBR Green, dry powder samples, dose response (AID 1159570); format: functional, cell-based;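 further: parasite growth measured after 72 hours of compound exposure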
[13] = toxicity to human HepG2 hepatoma cells – cell-based, plate reader, dry powder samples, cytotoxicity control, dose response (AID 1159569); format: functional;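 further: inhibitor potency with signal falling toward the positive control level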
[14] = molecular target: Potassium channel subfamily K member 3 (Homo sapiens, UniProt O14649); experiment: inhibition of human KCNK3 channel flux – CHO cells, FluxOR thallium flux, SAR follow-up (AID 652212); format: functional
Potassium channel subfamily K member 3, sequence (O14649 whole entry): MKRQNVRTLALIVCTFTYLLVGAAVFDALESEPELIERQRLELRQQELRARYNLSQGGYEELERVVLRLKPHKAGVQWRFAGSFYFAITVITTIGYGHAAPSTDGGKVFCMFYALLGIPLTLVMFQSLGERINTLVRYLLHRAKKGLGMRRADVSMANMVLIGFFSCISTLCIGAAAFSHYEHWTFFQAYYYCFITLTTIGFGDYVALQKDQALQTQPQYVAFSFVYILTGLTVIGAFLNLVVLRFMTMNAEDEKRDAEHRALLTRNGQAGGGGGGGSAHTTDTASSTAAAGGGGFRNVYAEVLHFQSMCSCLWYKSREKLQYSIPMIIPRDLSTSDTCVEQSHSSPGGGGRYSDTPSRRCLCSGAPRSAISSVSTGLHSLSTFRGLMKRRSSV

[15] = molecular target: Nonstructural protein 1 (Influenza A virus, UniProt Q194T2); format: functional, Influenza A virus (A/California/07/2009(H1N1))
Nonstructural protein 1, sequence (Q194T2 whole entry): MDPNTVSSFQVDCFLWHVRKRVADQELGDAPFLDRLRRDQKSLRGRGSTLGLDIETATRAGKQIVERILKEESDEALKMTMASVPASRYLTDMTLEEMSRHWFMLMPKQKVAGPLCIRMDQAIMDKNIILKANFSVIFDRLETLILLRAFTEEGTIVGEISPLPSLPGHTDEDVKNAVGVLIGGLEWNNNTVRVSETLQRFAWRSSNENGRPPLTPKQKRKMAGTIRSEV

[16] = melanocyte viability loss, MITF-dependent cells, cell-based, plate reader, dry powder, cytotoxicity control, dose response (AID 651920); format: functional
[17] = viability loss in MITF-independent A375 cells – cell-based, CellTiter-Glo luminescence, dry powder, set 7, counter-screen for MITF inhibitor project, dose response (AID 624490); format: functional; conditions: A-375
[18] = viability loss in MITF-independent A375 cells – cell-based, CellTiter-Glo luminescence, dry powder, set 2, counter-screen for MITF inhibitor project, dose response (AID 624489); format: functional; conditions: A-375;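 further: actives are compounds lowering A375 viability meaning general cytotoxicity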
[19] = MITF Orthogonal Assay: SK-MEL-5 CTG Assay Measured in Cell-Based System Using Plate Reader - 2084-02_Inhibitor_Dose_DryPowder_Activity_Set5.; format: functional
[20] = MITF Measured in Cell-Based System Using Plate Reader - 2084-01_Inhibitor_Dose_DryPowder_Activity_Set6.; format: functional
[21] = molecular target: T1, Calpain-2 catalytic subunit (Sus scrofa, UniProt P43367); experiment: m-calpain protease blockers, concentration series – biochemical, fluorogenic peptide substrate, dose response (AID 1420); format: functional
T1 sequence (P43367 whole entry): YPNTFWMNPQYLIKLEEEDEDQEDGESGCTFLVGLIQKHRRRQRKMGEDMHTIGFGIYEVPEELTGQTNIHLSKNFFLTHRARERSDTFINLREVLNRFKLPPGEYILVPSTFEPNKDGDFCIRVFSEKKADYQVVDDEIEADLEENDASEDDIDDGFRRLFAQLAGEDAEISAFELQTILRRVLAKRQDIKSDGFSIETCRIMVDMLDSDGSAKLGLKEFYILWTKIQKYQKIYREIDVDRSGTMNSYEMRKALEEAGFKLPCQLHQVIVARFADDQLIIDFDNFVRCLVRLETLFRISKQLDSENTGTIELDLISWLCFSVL

[22] = system: INS1; experiment: INS-1E survival protection against cytokine death – cell-based, luminescence, retest, dose response (AID 449756); format: functional; conditions: Rattus norvegicus;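 further: cell death triggered by IL-1 beta plus TNF-alpha plus IFN-gamma mixture; protective hits raise ATP signal compared with cytokine alone wells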
[23] = viability loss in MITF-independent A375 cells – cell-based, CellTiter-Glo luminescence, dry powder, set 6, counter-screen for MITF inhibitor project, dose response (AID 624488); format: functional
[24] = molecular target: T2, Heat shock factor protein 1 (Mus musculus, UniProt P38532); experiment: enhancement of HSF1-driven luciferase signal – cell-based, NIH3T3, luminescence, dose retest, confirmation (AID 435004); format: functional;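 further: stress induced by proteasome inhibitor MG132 added 30 min after compound; luciferase reporter driven by HSF1 response element in NIH3T3 cells; actives raise luminescence as potentiators of the MG132 stress response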
T2 sequence (P38532 whole entry): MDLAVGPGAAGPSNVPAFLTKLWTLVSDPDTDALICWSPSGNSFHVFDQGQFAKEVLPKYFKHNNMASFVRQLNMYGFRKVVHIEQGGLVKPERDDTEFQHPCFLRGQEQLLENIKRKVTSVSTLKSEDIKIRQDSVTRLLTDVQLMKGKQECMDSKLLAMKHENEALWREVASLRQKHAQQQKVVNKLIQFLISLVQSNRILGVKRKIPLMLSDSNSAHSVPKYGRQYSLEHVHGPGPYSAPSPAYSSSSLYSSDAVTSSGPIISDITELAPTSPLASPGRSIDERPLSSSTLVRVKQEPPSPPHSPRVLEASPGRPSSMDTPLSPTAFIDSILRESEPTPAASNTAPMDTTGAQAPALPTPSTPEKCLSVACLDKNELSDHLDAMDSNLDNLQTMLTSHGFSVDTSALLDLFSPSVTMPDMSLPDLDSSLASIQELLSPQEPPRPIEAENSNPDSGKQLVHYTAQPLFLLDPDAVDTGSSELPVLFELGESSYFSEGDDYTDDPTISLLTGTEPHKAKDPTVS

[25] = cytotoxicity in MITF-independent A375 cells – cell-based, CellTiter-Glo luminescence, dry powder, set 9, counter-screen for MITF modulator project, dose response (AID 651591); format: functional; conditions: A-375
[26] = cytotoxicity in MITF-independent A375 cells – cell-based, CellTiter-Glo luminescence, dry powder, set 4, counter-screen for MITF inhibitor project, dose response (AID 624364); format: functional; conditions: A-375;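 further: A375 melanoma cells are MITF independent so this is a counter screen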
[27] = cytotoxicity in melanoma parental cells – cell-based, CellTiter-Glo, dry powder, set 6, MITF inhibitor project, dose response (AID 624429); format: functional, SK-MEL-5

With `N#Cc1ccc(-c2ccc([C@H]3[C@@H]4CN(C(=O)C5CCCC5)C[C@H]3N4)cc2)cc1` the AC50 [1] was > 39 µM (inactive) and the AC50 [2] was 7.4 µM (active).
In the case of `COc1cc(/C=C(\CC(=O)O)c2nc3ccccc3s2)cc(OC)c1O`, the IC50 [3] was > 100 µM (active) and the IC50 [4] was > 100 µM (active).
For `CS(=O)(=O)N1CC(=O)N2[C@H](C1)[C@@H](c1ccc(C#Cc3ccc(F)cc3)cc1)[C@@H]2CO`, the AC50 [5] was > 26 µM (inactive).
In the case of `CCN(CC)CCNC(C(=O)OCCC(C)C)c1ccccc1` (stereo unspecified) [CAMYLOFIN], the IC50 [6] was 24.8 µM (inactive) and the IC50 [7] was > 33.3 µM (inactive).
With `COc1ccc(N2CCN(C(=O)c3cc4c(s3)-c3ccccc3S(=O)(=O)C4)CC2)cc1` the EC50 [8] was > 50 µM (active) and the IC50 [9] was > 10 µM (inactive).
In the case of `Cc1ccc(S(=O)(=O)N(C)C[C@H]2OCc3ccccc3-c3c(n(C)c4ccccc34)C(=O)N([C@@H](C)CO)C[C@H]2C)cc1`, the AC50 [10] was 2.01 µM (active), the AC50 [11] was 2.63 µM (active) and the AC50 [2] was 2.23 µM (active). The AC50 [12] was 3.19 µM (active) and the AC50 [13] was 9.17 µM (active).
For `CCOc1ccc(NC(=O)c2cccc(NC(=O)C3CCCC3)c2)cc1`, the IC50 [14] was 0.07 µM (active).
In the case of `O=C1C=C(Nc2ccccc2)C(=O)c2ccccc21`, the IC50 [15] was 81.7 µM (active), the AC50 [16] was > 70 µM (inactive) and the AC50 [17] was > 70 µM (inactive). For the same compound, the AC50 [18] was > 70 µM (inactive), the AC50 ([19]; SK-MEL-5) was 1.53 µM (active) and the AC50 ([19]; sk-mel-5) was 1.18 µM (active). For the same compound, the AC50 [20] was 7.24 µM (active) and 5.31 µM (active), the IC50 [21] was 6.16 µM (not active) and the AC50 [22] was 3.97 µM (active). For the same compound, the AC50 [23] was > 70 µM (inactive), the AC50 ([23]; A-375) was 51.5 µM (active) and the EC50 [24] was 1.26 µM (active). The AC50 [25] was > 70 µM (inactive), the AC50 [26] was > 70 µM (inactive) and the AC50 ([27]; SK-MEL-5) was 2.37 µM (active). The AC50 ([27]; sk-mel-5) was 1.93 µM (active).
